Relative viability data for six compounds are collected here from the supplement of paper PMC10307832.

SMILES strings stand for the structures.

The test system of one assay is NCI-H460. Kind of assay: relative viability (nuclei count vs DMSO), 5 days (fraction); higher = more cells survive. The conditions noted are these: first compound 2.53 µM. In a few lines:
(§1)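 Dosing by pin tool came one day after lung cancer cell lines were seeded in 1536-well plates, using either one drug or a fixed anchor-drug dose plus five library-drug doses (not always all listed) in √10 steps. After 5 days, nuclei were counted on 4× images. Relative viability is treated-well nuclei count divided by vehicle-well nuclei count, and values are medians of duplicate plates.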
Turning to `Nc1cccc2c1CN(C1CCC(=O)NC1=O)C2=O` (configuration not stated) [Lenalidomide] + N=C(N)NC(=N)NCCc1ccccc1 [Phenformin] (partner 250 µM), the relative viability stood at 0.671.
As to `Nc1cccc2c1CN(C1CCC(=O)NC1=O)C2=O` (configuration not stated) [Lenalidomide] + Nc1nc2[nH]cc(CCc3ccc(C(=O)N[C@@H](CCC(=O)O)C(=O)O)cc3)c2c(=O)[nH]1 [Pemetrexed] (partner 0.2 µM), the relative viability is 0.0659.
The compound `Nc1cccc2c1CN(C1CCC(=O)NC1=O)C2=O` (configuration not stated) [Lenalidomide] + CC(=O)c1c(C)c2cnc(Nc3ccc(N4CCNCC4)cn3)nc2n(C2CCCC2)c1=O [Palbociclib] (partner 0.5 µM) showed a relative viability of 0.197.
Consider `Nc1cccc2c1CN(C1CCC(=O)NC1=O)C2=O` (configuration not stated) [Lenalidomide] + O=C(CCCCCCC(=O)Nc1ccccc1)NO [Vorinostat] (partner 1 µM), for which the relative viability turned out to be 1.03.
Regarding `Nc1cccc2c1CN(C1CCC(=O)NC1=O)C2=O` (configuration not stated) [Lenalidomide] + COc1cccc2cc(-c3nc([C@H]4CC[C@H](C(=O)O)CC4)n4ncnc(N)c34)[nH]c12 [OSI-027] (partner 0.5 µM), the relative viability amounted to 1.01.

Staying with this assay, now noted: first compound 8 µM.
Consider `Nc1cccc2c1CN(C1CCC(=O)NC1=O)C2=O` (configuration not stated) [Lenalidomide] + Nc1ncn([C@H]2C[C@H](O)[C@@H](CO)O2)c(=O)n1 [Decitabine] (partner 2 µM), for which the relative viability amounted to 0.649.
On the same count and under the same terms, with `Nc1cccc2c1CN(C1CCC(=O)NC1=O)C2=O` (configuration not stated) [Lenalidomide] + N=C(N)NC(=N)NCCc1ccccc1 [Phenformin] (partner 250 µM) the figure was 0.563.
In turn, `Nc1cccc2c1CN(C1CCC(=O)NC1=O)C2=O` (configuration not stated) [Lenalidomide] + Nc1nc2[nH]cc(CCc3ccc(C(=O)N[C@@H](CCC(=O)O)C(=O)O)cc3)c2c(=O)[nH]1 [Pemetrexed] (partner 0.2 µM) gave a relative viability of 0.0603.
Consider `Nc1cccc2c1CN(C1CCC(=O)NC1=O)C2=O` (configuration not stated) [Lenalidomide] + CC(=O)c1c(C)c2cnc(Nc3ccc(N4CCNCC4)cn3)nc2n(C2CCCC2)c1=O [Palbociclib] (partner 0.5 µM), for which the relative viability stood at 0.142.
In the case of `Nc1cccc2c1CN(C1CCC(=O)NC1=O)C2=O` (configuration not stated) [Lenalidomide] + O=C(CCCCCCC(=O)Nc1ccccc1)NO [Vorinostat] (partner 1 µM), the relative viability turned out to be 0.783.
Compound `Nc1cccc2c1CN(C1CCC(=O)NC1=O)C2=O` (configuration not stated) [Lenalidomide] + COc1cccc2cc(-c3nc([C@H]4CC[C@H](C(=O)O)CC4)n4ncnc(N)c34)[nH]c12 [OSI-027] (partner 0.5 µM) yielded a relative viability of 0.709.

A further assay has as its system NCI-H520. The description is as above. The conditions noted are these: first compound 0.253 µM. The method in brief: as §1
`Nc1cccc2c1CN(C1CCC(=O)NC1=O)C2=O` (configuration not stated) [Lenalidomide] + Nc1ncn([C@H]2C[C@H](O)[C@@H](CO)O2)c(=O)n1 [Decitabine] (partner 2 µM) showed a relative viability of 0.539.
Same read-out and setting: with `Nc1cccc2c1CN(C1CCC(=O)NC1=O)C2=O` (configuration not stated) [Lenalidomide] + N=C(N)NC(=N)NCCc1ccccc1 [Phenformin] (partner 250 µM) the figure was 0.579.
Take `Nc1cccc2c1CN(C1CCC(=O)NC1=O)C2=O` (configuration not stated) [Lenalidomide] + Nc1nc2[nH]cc(CCc3ccc(C(=O)N[C@@H](CCC(=O)O)C(=O)O)cc3)c2c(=O)[nH]1 [Pemetrexed] (partner 0.2 µM): the relative viability is 0.722.
Compound `Nc1cccc2c1CN(C1CCC(=O)NC1=O)C2=O` (configuration not stated) [Lenalidomide] + CC(=O)c1c(C)c2cnc(Nc3ccc(N4CCNCC4)cn3)nc2n(C2CCCC2)c1=O [Palbociclib] (partner 0.5 µM) registered a relative viability of 0.225.
For `Nc1cccc2c1CN(C1CCC(=O)NC1=O)C2=O` (configuration not stated) [Lenalidomide] + O=C(CCCCCCC(=O)Nc1ccccc1)NO [Vorinostat] (partner 1 µM), the relative viability was 0.738.
On to `Nc1cccc2c1CN(C1CCC(=O)NC1=O)C2=O` (configuration not stated) [Lenalidomide] + COc1cccc2cc(-c3nc([C@H]4CC[C@H](C(=O)O)CC4)n4ncnc(N)c34)[nH]c12 [OSI-027] (partner 0.5 µM), for which the relative viability was 0.284.

The same assay, now with this note: first compound 0.8 µM.
As to `Nc1cccc2c1CN(C1CCC(=O)NC1=O)C2=O` (configuration not stated) [Lenalidomide] + Nc1ncn([C@H]2C[C@H](O)[C@@H](CO)O2)c(=O)n1 [Decitabine] (partner 2 µM), the relative viability was determined as 0.548.
`Nc1cccc2c1CN(C1CCC(=O)NC1=O)C2=O` (configuration not stated) [Lenalidomide] + N=C(N)NC(=N)NCCc1ccccc1 [Phenformin] (partner 250 µM) had a relative viability of 0.481.
As to `Nc1cccc2c1CN(C1CCC(=O)NC1=O)C2=O` (configuration not stated) [Lenalidomide] + Nc1nc2[nH]cc(CCc3ccc(C(=O)N[C@@H](CCC(=O)O)C(=O)O)cc3)c2c(=O)[nH]1 [Pemetrexed] (partner 0.2 µM), the relative viability was found to be 0.607.
For the compound `Nc1cccc2c1CN(C1CCC(=O)NC1=O)C2=O` (configuration not stated) [Lenalidomide] + CC(=O)c1c(C)c2cnc(Nc3ccc(N4CCNCC4)cn3)nc2n(C2CCCC2)c1=O [Palbociclib] (partner 0.5 µM), the relative viability is 0.216.
Still for that read-out and setting: under `Nc1cccc2c1CN(C1CCC(=O)NC1=O)C2=O` (configuration not stated) [Lenalidomide] + O=C(CCCCCCC(=O)Nc1ccccc1)NO [Vorinostat] (partner 1 µM) stands 0.74; under `Nc1cccc2c1CN(C1CCC(=O)NC1=O)C2=O` (configuration not stated) [Lenalidomide] + COc1cccc2cc(-c3nc([C@H]4CC[C@H](C(=O)O)CC4)n4ncnc(N)c34)[nH]c12 [OSI-027] (partner 0.5 µM), 0.25.

Staying with this assay, now noted: first compound 2.53 µM.
Compound `Nc1cccc2c1CN(C1CCC(=O)NC1=O)C2=O` (configuration not stated) [Lenalidomide] + Nc1ncn([C@H]2C[C@H](O)[C@@H](CO)O2)c(=O)n1 [Decitabine] (partner 2 µM) showed a relative viability of 0.507.
In turn, `Nc1cccc2c1CN(C1CCC(=O)NC1=O)C2=O` (configuration not stated) [Lenalidomide] + N=C(N)NC(=N)NCCc1ccccc1 [Phenformin] (partner 250 µM) showed a relative viability of 0.658.
The compound `Nc1cccc2c1CN(C1CCC(=O)NC1=O)C2=O` (configuration not stated) [Lenalidomide] + Nc1nc2[nH]cc(CCc3ccc(C(=O)N[C@@H](CCC(=O)O)C(=O)O)cc3)c2c(=O)[nH]1 [Pemetrexed] (partner 0.2 µM) displayed a relative viability of 0.79.
`Nc1cccc2c1CN(C1CCC(=O)NC1=O)C2=O` (configuration not stated) [Lenalidomide] + CC(=O)c1c(C)c2cnc(Nc3ccc(N4CCNCC4)cn3)nc2n(C2CCCC2)c1=O [Palbociclib] (partner 0.5 µM) registered a relative viability of 0.236.
As for `Nc1cccc2c1CN(C1CCC(=O)NC1=O)C2=O` (configuration not stated) [Lenalidomide] + O=C(CCCCCCC(=O)Nc1ccccc1)NO [Vorinostat] (partner 1 µM), the relative viability amounted to 0.731.
The same measure, in the same setting: with `Nc1cccc2c1CN(C1CCC(=O)NC1=O)C2=O` (configuration not stated) [Lenalidomide] + COc1cccc2cc(-c3nc([C@H]4CC[C@H](C(=O)O)CC4)n4ncnc(N)c34)[nH]c12 [OSI-027] (partner 0.5 µM) the figure was 0.311.

Still in this assay, the particulars now being: first compound 8 µM.
The compound `Nc1cccc2c1CN(C1CCC(=O)NC1=O)C2=O` (configuration not stated) [Lenalidomide] + Nc1ncn([C@H]2C[C@H](O)[C@@H](CO)O2)c(=O)n1 [Decitabine] (partner 2 µM) came in with a relative viability of 0.438.
In turn, `Nc1cccc2c1CN(C1CCC(=O)NC1=O)C2=O` (configuration not stated) [Lenalidomide] + N=C(N)NC(=N)NCCc1ccccc1 [Phenformin] (partner 250 µM) returned a relative viability of 0.257.
Regarding `Nc1cccc2c1CN(C1CCC(=O)NC1=O)C2=O` (configuration not stated) [Lenalidomide] + Nc1nc2[nH]cc(CCc3ccc(C(=O)N[C@@H](CCC(=O)O)C(=O)O)cc3)c2c(=O)[nH]1 [Pemetrexed] (partner 0.2 µM), the relative viability is 0.689.
